Experiments:
[1] = test system: mice; assay: Muscular relaxing effect, Rotarod Method (R.R), oral, mice; assay type: in vivo, dd Male mice; conditions: Mus musculus; for responders at 500 mg/kg: read-out: Inhibition percent of the central muscular relaxing effect, R.R (Rotarod Method)
Procedure: (§1) dd Male mice weighing 18 to 22 g, one group consisting of 10 animals, were orally given the compounds (I) to (V) as indicated below suspended in 0.2% carboxymethylcellulose solution in a dose of 0.25ml/10g-body weight. Mephenesin was used as active placebo.
Mice were placed on Rotar Load (made by Natsume Seisakusho Co., Ltd.) having a diameter of 3 cm rotating at a speed of 10 rpm and falling (occurring within 3 minutes) was observed.

[2] = test system: mice; assay: Muscular relaxing effect, Traction Test (T.T), oral, mice; assay type: in vivo, dd Male mice; conditions: Mus musculus; for responders at 500 mg/kg: read-out: Inhibition percent of the central muscular relaxing effect, T.T (Traction Test)
Procedure: as §1

[3] = test system: mice; assay: Muscular relaxing effect, Inclined Plane Test (I.P), oral, mice; assay type: in vivo, dd Male mice; conditions: Mus musculus; for responders at 500 mg/kg: read-out: Inhibition percent of the central muscular relaxing effect, I.P (Inclined Plane Test)
Procedure: as §1
Mice were placed on veneer inclined at an angle of 30° and on wire-netting inclined at an angle of 60° of which one division is 5 mm square, and mice sliding down were observed as positive, in comparison with normal behavior.

[4] = test system: mice; assay: Muscular relaxing effect, Righting Reflex Test (R.r), oral, mice; assay type: in vivo, dd Male mice; conditions: Mus musculus; for responders at 500 mg/kg: read-out: Inhibition percent of the central muscular relaxing effect, R.r (Righting Reflex Test)
Procedure: as §1

[5] = test system: mice; assay: Muscular relaxing effect, Pinna Reflex Test (P.r), oral, mice; assay type: in vivo, dd Male mice; conditions: Mus musculus; for responders at 500 mg/kg: read-out: Inhibition percent of the central muscular relaxing effect, P.r (Pinna Reflex Test)
Procedure: as §1
Pinna reflex was observed by using mandolin wire for 1/4 injection syringe.

[6] = test system: mice; assay: Muscular relaxing effect, Corneal Reflex Test (C.r), oral, mice; assay type: in vivo, dd Male mice; conditions: Mus musculus; for responders at 500 mg/kg: read-out: Inhibition percent of the central muscular relaxing effect, C.r (Corneal Reflex Test)
Procedure: as §1
Corneal reflex was observed by using mandolin wire for 1/4 injection syringe.

[7] = test system: carrageenan-induced edema in rats; assay: Antiinflammatory effect on carrageenan-induced edema; assay type: in vivo, Wistar male rats
Procedure: […] One hour after the administration of the test compounds, the hind paw was given a subcutaneous injection of 0.05ml of 0.5% carrageenan saline solution, and volume of the hind paw was measured at 1, 2, 3, 4, 5 and 6 hours after the injection of carrageenan by a volume differential meter. Inhibitory percent was calculated based on the swelling in the control. Phenybutazone was used as active placebo.

[8] = test system: pain threshold in mice; assay: Analgetic effect, Pressure Test (pain threshold, tail pressure); assay type: in vivo, dd Male mice; conditions: 100 mg/kg oral; for Pain threshold, Mean ± SE, 30 min / Pain threshold, Mean ± SE, 60 min / Pain threshold, Mean ± SE, 90 min / Pain threshold, Mean ± SE, 120 min: *p <0.05, **p <0.01, ***p <0.001
Procedure: dd Male mice weighing 18 to 22 g (pain threshold ranging within 30 to 50 mmHg), one group consisting of 10 animals, were given orally the test compounds suspended in 0.2% carboxymethylcellulose solution in a dose of 100mg/kg-body weight. Pain threshold were measured at 30, 60, 90 and 120 minutes after the administration of the test compounds while pain reaction occurring by application of pressure on tails of animals was referred to as indication. Aminopyrine was used as active placebo.

[9] = Table 1, oral, mice, maximum response 15-180 min, Litchfield Wilcoxon

SMILES | responders at 500 mg/kg ([1]; Table 2, 500 mg/kg, oral, mice) [%] | responders at 500 mg/kg ([2]; Table 2, 500 mg/kg, oral, mice) [%] | responders at 500 mg/kg ([3]; Table 2, 500 mg/kg, oral, mice) [%] | responders at 500 mg/kg ([4]; Table 2, 500 mg/kg, oral, mice) [%] | responders at 500 mg/kg ([5]; Table 2, 500 mg/kg, oral, mice) [%] | responders at 500 mg/kg ([6]; Table 2, 500 mg/kg, oral, mice) [%] | Inhibitory per cent, carrageenan-induced edema, 1 hr ([7]; Table 6, 100 mg/kg oral) [per cent] | Inhibitory per cent, carrageenan-induced edema, 2 hrs. ([7]; Table 6, 100 mg/kg oral) [per cent] | Inhibitory per cent, carrageenan-induced edema, 3 hrs. ([7]; Table 6, 100 mg/kg oral) [per cent] | Inhibitory per cent, carrageenan-induced edema, 4 hrs. ([7]; Table 6, 100 mg/kg oral) [per cent] | Inhibitory per cent, carrageenan-induced edema, 5 hrs. ([7]; Table 6, 100 mg/kg oral) [per cent] | also measured
CCc1ccccc1CC1CNC(=O)O1 (stereo not shown) [Compound VI, 5-(o-ethylbenzyl)-2-oxazolidone] | 60 | 40 | 50 | 10 | 10 | 0 | 27.8 | 36.3 | 53.6 | 28.9 | 22.0 | Inhibitory per cent, carrageenan-induced edema, 6 hrs. ([7]; Table 6, 100 mg/kg oral): 17.4 per cent
C=CCOc1ccccc1CC1CNC(=O)O1 (stereo not shown) [Compound X, 5-(o-allyloxybenzyl)-2-oxazolidone] | 80 | 40 | 40 | 30 | 40 | 0 |  |  |  |  |  | 
O=C1NCC(Cc2ccc(F)cc2)O1 (stereo not shown) [Compound XI, 5-(p-fluorobenzyl)-2-oxazolidone] | 100 | 90 | 80 | 10 | 60 | 0 |  |  |  |  |  | Inhibitory per cent, carrageenan-induced edema, 1 hr ([7]; Table 6, 200 mg/kg oral): 38.3 per cent; Inhibitory per cent, carrageenan-induced edema, 2 hrs. ([7]; Table 6, 200 mg/kg oral): 47.5 per cent; Inhibitory per cent, carrageenan-induced edema, 3 hrs. ([7]; Table 6, 200 mg/kg oral): 44.5 per cent; Inhibitory per cent, carrageenan-induced edema, 4 hrs. ([7]; Table 6, 200 mg/kg oral): 34.4 per cent; Inhibitory per cent, carrageenan-induced edema, 5 hrs. ([7]; Table 6, 200 mg/kg oral): 9.2 per cent; Inhibitory per cent, carrageenan-induced edema, 6 hrs. ([7]; Table 6, 200 mg/kg oral): 8.9 per cent
O=C1NCC(Cc2ccccc2-c2ccccc2)O1 (stereo not shown) [Compound XIV, 5-(o-phenylbenzyl)-2-oxazolidone] |  |  |  |  |  |  | 12.9 | 35.2 | 40.0 | 15.6 | 9.1 | 
O=C1NCC(Cc2ccccc2Oc2ccccc2)O1 (stereo not shown) [Compound XV, 5-(o-phenoxybenzyl)-2-oxazolidone] |  |  |  |  |  |  | 59.5 | 57.1 | 59.9 | 30.8 | 26.1 | Inhibitory per cent, carrageenan-induced edema, 6 hrs. ([7]; Table 6, 100 mg/kg oral): 23.2 per cent
NC(=O)OCCCc1ccccc1 [GP, γ-phenylpropylcarbamate, reference compound] |  |  |  |  |  |  |  |  |  |  |  | responders at 500 mg/kg ([1]; po): 60%; responders at 500 mg/kg ([2]; po): 40%; responders at 500 mg/kg ([3]; po): 30%; responders at 500 mg/kg ([4]; po): 0%; responders at 500 mg/kg ([5]; po): 10%; responders at 500 mg/kg ([6]; po): 0%
O=C1NCC(Cc2cccc(C(F)(F)F)c2)O1 (stereo not shown) [IX, 5-(m-trifluoromethylbenzyl)-2-oxazolidone] | 90 | 60 | 60 | 0 | 60 | 0 |  |  |  |  |  | Inhibitory per cent, carrageenan-induced edema, 1 hr ([7]; Table 6, 200 mg/kg oral): 45.0 per cent; Inhibitory per cent, carrageenan-induced edema, 2 hrs. ([7]; Table 6, 200 mg/kg oral): 49.4 per cent; Inhibitory per cent, carrageenan-induced edema, 3 hrs. ([7]; Table 6, 200 mg/kg oral): 20.8 per cent; Inhibitory per cent, carrageenan-induced edema, 4 hrs. ([7]; Table 6, 200 mg/kg oral): 11.3 per cent; Inhibitory per cent, carrageenan-induced edema, 5 hrs. ([7]; Table 6, 200 mg/kg oral): 14.5 per cent; Inhibitory per cent, carrageenan-induced edema, 6 hrs. ([7]; Table 6, 200 mg/kg oral): 11.5 per cent
Cc1ccccc1OCC(O)CO (stereo not shown) [Mephenesin, reference compound] | 80 | 40 | 60 | 20 | 20 | 0 |  |  |  |  |  | ED50 [1, 9]: 268 mg/kg; ED50 [2, 9]: 460 mg/kg; ED50 [3, 9]: 470 mg/kg; ED50 [4, 9]: 640 mg/kg; ED50 [5, 9]: 420 mg/kg; ED50 [6, 9]: 680 mg/kg
CCCCC1C(=O)N(c2ccccc2)N(c2ccccc2)C1=O [Phenylbutazone, reference compound] |  |  |  |  |  |  | 59.1 | 54.6 | 59.7 | 68.2 | 63.4 | Inhibitory per cent, carrageenan-induced edema, 3 hrs. ([7]; Table 5, 200 mg/kg oral): 76.6 per cent; Inhibitory per cent, carrageenan-induced edema, 6 hrs. ([7]; Table 5, 200 mg/kg oral): 45.1 per cent; Inhibitory per cent, carrageenan-induced edema, 6 hrs. ([7]; Table 6, 100 mg/kg oral): 52.6 per cent
CCc1ccc(CC2CNC(=O)O2)cc1 (stereo not shown) [VII, 5-(p-ethylbenzyl)-2-oxazolidone] | 80 | 40 | 40 | 0 | 0 | 0 |  |  |  |  |  | 
O=C1NCC(Cc2ccccc2C(F)(F)F)O1 (stereo not shown) [VIII, 5-(o-trifluoromethylbenzyl)-2-oxazolidone] | 90 | 40 | 40 | 10 | 10 | 0 |  |  |  |  |  | Pain threshold Increase Ratio [8]: 1.28; Pain threshold, Mean ± SE, 30 min [8]: 62.0 ± 4.6 mmHg; Pain threshold, Mean ± SE, 60 min [8]: 60.2 ± 3.0 mmHg; Pain threshold, Mean ± SE, 90 min [8]: 57.5 ± 3.2 mmHg; Pain threshold, Mean ± SE, 120 min [8]: 52.9 ± 2.0 mmHg; Inhibitory per cent, carrageenan-induced edema, 1 hr ([7]; Table 6, 200 mg/kg oral): 21.7 per cent; Inhibitory per cent, carrageenan-induced edema, 2 hrs. ([7]; Table 6, 200 mg/kg oral): 49.7 per cent; Inhibitory per cent, carrageenan-induced edema, 3 hrs. ([7]; Table 6, 200 mg/kg oral): 27.4 per cent; Inhibitory per cent, carrageenan-induced edema, 4 hrs. ([7]; Table 6, 200 mg/kg oral): 35.6 per cent; Inhibitory per cent, carrageenan-induced edema, 5 hrs. ([7]; Table 6, 200 mg/kg oral): 9.2 per cent; Inhibitory per cent, carrageenan-induced edema, 6 hrs. ([7]; Table 6, 200 mg/kg oral): 0.5 per cent
O=C1NCC(Cc2ccccc2Br)O1 (stereo not shown) [XII, 5-(o-bromobenzyl)-2-oxazolidone] | 100 | 60 | 80 | 0 | 20 | 0 |  |  |  |  |  | Pain threshold Increase Ratio [8]: 1.24; Pain threshold, Mean ± SE, 30 min [8]: 59.6 ± 3.4 mmHg; Pain threshold, Mean ± SE, 60 min [8]: 59.4 ± 3.7 mmHg; Pain threshold, Mean ± SE, 90 min [8]: 57.5 ± 1.9 mmHg; Pain threshold, Mean ± SE, 120 min [8]: 52.7 ± 2.1 mmHg
O=C1NCC(Cc2ccccc2F)O1 (stereo not shown) [XIII, 5-(o-fluorobenzyl)-2-oxazolidone] | 90 | 70 | 50 | 20 | 0 | 10 |  |  |  |  |  | Pain threshold Increase Ratio [8]: 1.13; Pain threshold, Mean ± SE, 30 min [8]: 52.1 ± 3.4 mmHg; Pain threshold, Mean ± SE, 60 min [8]: 53.7 ± 2.6 mmHg; Pain threshold, Mean ± SE, 90 min [8]: 50.4 ± 2.8 mmHg; Pain threshold, Mean ± SE, 120 min [8]: 47.3 ± 1.8 mmHg
